System: Jurkat cells
Assay: (r) Cell cytotoxicity assay
Type: cell-based, human
Conditions: 24 hours
Summary of the method: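 Jurkat cells (1×10^5/well, RPMI + 10% FBS) exposed to compound at 20, 5 or 1 μg/mL final (1.0% DMSO control) for 24 h at 37° C., 5% CO2. Then stained with 7.5 μg/mL propidium iodide for 15 min. % viability = PI-negative cells by flow cytometry, normalized to DMSO.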

Structure (SMILES)	% Viability at 1 μg/mL [%]	% Viability at 5 μg/mL [%]	% Viability at 20 μg/mL [%]
COc1cc(Nc2cc(Oc3ccc(NC(=O)Nc4cc(C(C)(C)C)cc(NS(C)(=O)=O)c4OC)c4ccccc34)ccn2)ccc1C(=O)N(C)CCN1CCN(C)CC1 [17(bh), 4-((4-((4-(3-(5-(tert-Butyl)-2-methoxy-3-(methylsulfonamido)phenyl)ureido)naphthalen-1-yl)oxy)pyridin-2-yl)amino)-2-methoxy-N-methyl-N-(2-(4-methylpiperazin-1-yl)ethyl)benzamide]	99.5	67.8	0.6
COc1cc(Nc2cc(Oc3ccc(NC(=O)Nc4cc(C(C)(C)C)cc(NS(C)(=O)=O)c4OC)c4ccccc34)ccn2)ccc1C(=O)NCCN1CCN(C)CC1(C)C [17(bi), 4-((4-((4-(3-(5-(tert-Butyl)-2-methoxy-3-(methylsulfonamido)phenyl)ureido)naphthalen-1-yl)oxy)pyridin-2-yl)amino)-2-methoxy-N-(2-(2,2,4-trimethylpiperazin-1-yl)ethyl)benzamide]	97.4	0.8	0.6
COc1c(NC(=O)Nc2ccc(Oc3ccnc(Nc4ccc(C(=O)NCCN5CCN(C)CC5)c(N(C)C)c4)c3)c3ccccc23)cc(C(C)(C)C)cc1NS(C)(=O)=O [17(bq), 4-((4-((4-(3-(5-(tert-Butyl)-2-methoxy-3-(methylsulfonamido)phenyl)ureido)naphthalen-1-yl)oxy)pyridin-2-yl)amino)-2-(dimethylamino)-N-(2-(4-methylpiperazin-1-yl)ethyl)benzamide]	87.2	55.3	2.0
COc1c(NC(=O)Nc2ccc(Oc3ccnc(Nc4ccc(C(=O)O)c(N(C)C)c4)n3)c3ccccc23)cc(C(C)(C)C)cc1NS(C)(=O)=O [17(bc), 4-((4-((4-(3-(5-(tert-Butyl)-2-methoxy-3-(methylsulfonamido)phenyl)ureido)naphthalen-1-yl)oxy)pyrimidin-2-yl)amino)-2-(dimethylamino)benzoic acid]	93.9	89.2	10.8
COc1cc(Nc2cc(Oc3ccc(NC(=O)Nc4cc(C(C)(C)C)cc(NS(C)(=O)=O)c4OC)c4ccccc34)ccn2)ccc1C(=O)N[C@H]1C(O)O[C@H](CO)[C@@H](O)[C@@H]1O (stereo partly drawn) [17(br), 4-((4-((4-(3-(5-(tert-Butyl)-2-methoxy-3-(methylsulfonamido)phenyl)ureido)naphthalen-1-yl)oxy)pyridin-2-yl)amino)-2-methoxy-N-((3R,4R,5S,6R)-2,4,5-trihydroxy-6-(hydroxymethyl)tetrahydro-2H-pyran-3-yl)benzamide]	91.8	90.7	79.2
